Earlier results as cited in patent publication US6653352B2, “Pain reliever and method of use” (Medical Merchandising, Inc., priority 1999, dated 2003).

Conditions: in fats, oils and alcohols

solubility: very soluble in fats, oils and alcohols
SMILES: COc1cc(CNC(=O)CCCC/C=C/C(C)C)ccc1O [Capsaicin, N-Vanillyl-8-methyl-6-(E)-noneamide]
